The record followed here is patent publication US20240271138A1, “METHODS AND COMPOSITIONS FOR MODULATING STING SIGNALING AND INNATE IMMUNE RESPONSES” (The Broad Institute, Inc., priority 2021, published 2024).

The subject of experiment [1] is 293T stably expressing STING-HA. Kind of experiment: Immunofluorescence of HGS, p62, CD63, LC3B and STING in 293T STING-HA after cGAMP. It counts as cell-based, human. Particulars: 293T STING-HA; cGAMP 2 hours; MLN7243; FIGS. 5E-5F. How it is done:
293T STING-TurboID were seeded directly on coverslips. 293T STING-HA were seeded on Fibronectin bovine plasma (Sigma-stock: 100×) coated coverslips. Cells were seeded the day before stimulation at 0.1 million cells/well density in 24 well plates. Cells were stimulated with cGAMP permeabilization buffer containing 1 μg/mL cGAMP for 10 minutes, washed with warm medium, and incubated for the indicated times. hTert-BJ1 mScarlet or mScarlet-UBAP1DN were seeded Fibronectin bovine plasma coated coverslips at 0.05 million cells/well density in a 24 well plate and fixed 6 hours post seeding. Cells were then fixed with 2% Paraformaldehyde (Electron Microscopy Sciences) in PHEM buffer (Electron Microscopy Sciences) for 30 minutes at 37° C., washed three times with PBS and quenched with freshly prepared 0.1M Glycine for 10 minutes. Coverslips were then permeabilized and blocked with 10% goat serum (Thermo Fisher) in PBS, 0.5% BSA (Seracare), 0.05% Saponin from Quillaja bark (Sigma) for 30 minutes. Coverslips were then stained with primary antibodies for 1-2 hours at room temperature in PBS, 0.5% BSA (Seracare), 0.05% Saponin from Quillaja bark (Sigma) with 10% goat serum, washed 5 times, and then stained with secondary antibodies in PBS, 0.5% BSA (Seracare), 0.05% Saponin from Quillaja bark (Sigma) for 1-2 hours. […] Images were analyzed in FiJi. […]

The subject of the next experiment is STING-mNeonGreen. Nature of the experiment: STING degradation in 293T STING-mNeonGreen reporter cell line by flow cytometry. The conditions noted are these: 293T STING-mNG; 4 μg/mL 2′3′-cGAMP(pS)2; 0.5 μM MLN7243; FIGS. 5A-5B. (A flow cytometer gives signals particle by particle.)
For experiment [2], the system named is STING association with ESCRT (HGS, VPS37A) and TBK1. Nature of the experiment: STING-TurboID proximity biotin labeling and streptavidin pull-down in 293T. It counts as cell-based, human. Particulars: 293T STING-TurboID; 3 hours; 0.5 μM MLN7243; FIG. 5C. The protocol: Generation of cells and stimulation. 293T cells were transduced with pTRIP-hPGK-Blast-2A-STING-TurboID and selected with 15 μg/mL Blasticidin (Invivogen) for one week. To test the construct via pull-down, 0.8 million cells were seeded in a 6 well plate. The following day, cells were permeabilized with 300 μl/well of cGAMP permeabilization buffer [50 mM HEPES (Corning), 100 mM KCl (Thermo Fisher), 3 mM MgCl2 (Thermo Fisher), 0.1 mM DTT (Thermo fisher), 85 mM Sucrose (Thermo Fisher), 0.5 mM ATP (Cayman chemicals), 0.1 mM GTP (Cayman Chemicals), 0.2% BSA (Seracare), 0.001% Digitonin (Promega)| containing 1 μg/mL 2′3′-cGAMP (Invivogen) or water for 10 minutes at 37° C., washed with 3 mL of warm medium and then medium was replaced. For mass-spec, 6 million cells were seeded in a 10 cm dish for each condition. Cells were stimulated with 2.8 mL of cGAMP permeabilization buffer containing 6 μg total of cGAMP per dish. Cells were left stimulating for the desired times and 500 μM biotin (Cayman chemicals) was added in each well 30 minutes prior to harvest. Cells were harvested by trypsinization, washed 3 times in cold PBS and pellets were frozen until processing. For experiments in 6 well plates, 3 wells per condition were harvested. For experiments in 10 cm dishes, one dish per condition was harvested.
Pull-down. […]

Experimental for STING-mNeonGreen: MLN7243 (Selleckchem) was used at 0.5 μM in all experiments. All cell lines were pre-treated for one hour before cGAMP stimulation. […] Cells were stimulated with 300 μL cGAMP permeabilization buffer containing 0.5 μg/mL 2′3′-cGAMP for 10 minutes, washed with 3 mL of medium, and medium was then replaced. MLN7243 was added again after medium replacement. Cells were stimulated for the indicated times.
Cells were then washed twice with Cytoperm and resuspended in FACS buffer for flow cytometry. Acquisition was performed on a Cytoflex S or Cytoflex LX (Beckman Coulter). Data was analyzed with FlowJo (BD).

Turning to `NS(=O)(=O)OC[C@H]1C[C@@H](Nc2ccnc3cc(-c4cccc(SC(F)(F)F)c4)nn23)[C@H](O)[C@@H]1O` [MLN7243], in experiment [1], the “HGS co-localization with p62” value is listed as “failed to co-localize with p62” and the “HGS foci co-localizing with STING” value was “completely lost”. In addition, the “degradation of STING (% STING-mNG positive cells)” value in the experiment with STING-mNeonGreen is “complete block of degradation of STING”. In experiment [2], the “biotin labeling of HGS and VPS37A by STING-TurboID” value was “reduced the biotin labeling of HGS and VPS37A”; the “biotin labeling of TBK1 by STING-TurboID” value is recorded as “unaffected”.
